Measurements as given in the OligoGym collection.
Several values for one entry are separate records, joined by “and”; a condition that tells them apart may be missing. Equal values may be shown once. After the bases stand the sugars from the 5' end (letter, count) and the backbone: PS all phosphorothioate, else s phosphorothioate and o phosphodiester by linkage. Methylation of C is not given here. e = 2'-O-(2-methoxyethyl) (MOE); k = constrained ethyl (cEt); d = 2'-deoxy (DNA)

Target: IRF4
Conditions: ASO

Sequence | target mRNA inhibition (SK-MEL-28, 4 µM) | other results
GGCGAGTTGGCACAAT (sugars k3 d10 k3, PS) | – | target mRNA inhibition (MM.1R, 0.0625 µM): -13%; target mRNA inhibition (MM.1R, 0.25 µM): 3%; target mRNA inhibition (MM.1R, 1 µM): 49% and 30%; target mRNA inhibition (MM.1R, 4 µM): 60%
GGCGCGCTCCCTTCCC (sugars k3 d10 k3, PS) | 10% | –
GGCGGACACGCCCGAC (sugars k3 d10 k3, PS) | – | target mRNA inhibition (MM.1R, 1 µM): 7%
GGCGGAGCATCAACAA (sugars k3 d10 k3, PS) | 60% | –
GGCGGAGCTTCCCGTT (sugars k3 d10 k3, PS) | 26% | –
GGCTATCAGGATCTCA (sugars k3 d10 k3, PS) | 45% | –
GGCTCAACCTGGAAGG (sugars k3 d10 k3, PS) | 29% | –
GGCTGAACTGTGTAAT (sugars k3 d10 k3, PS) | 72% | –
GGCTTTGTGTTTAAGT (sugars k3 d10 k3, PS) | 23% | –
GGGAAAGAGCTTTGGT (sugars k3 d10 k3, PS) | 5% | –
GGGAACAGGACCTGGT (sugars k3 d10 k3, PS) | 55% | –
GGGAACCTGAAAAGAG (sugars k3 d10 k3, PS) | 21% | –
GGGAATTTCCATTGGA (sugars k3 d10 k3, PS) | 44% | –
GGGAGATCCGGCAGCC (sugars k4 d8 k4, PS) | -13% | –
GGGATTATATACTGGT (sugars kdddddddddkekeke, PS) | – | target mRNA inhibition (MM.1R, 1 µM): 29%
GGGATTATATACTGGT (sugars kkdddddddddkdkdk, PS) | – | target mRNA inhibition (MM.1R, 1 µM): 41%
GGGCTTCCTAGGTTTC (sugars k3 d10 k3, PS) | 39% | –
GGGTACATGGCAGTGG (sugars k3 d10 k3, PS) | 68% | target mRNA inhibition (SK-MEL-28, 0.185 µM): 19%; target mRNA inhibition (SK-MEL-28, 5 µM): 76%; target mRNA inhibition (SK-MEL-28, 15 µM): 92%
GGGTACCCTGCGCTGC (sugars k3 d10 k3, PS) | 44% | –
GGGTCCTCCGCCCGCT (sugars k3 d10 k3, PS) | 28% | –
GGTAAACTGCCTTAGG (sugars k3 d10 k3, PS) | 25% | –
GGTAAAGGAGTGCAGG (sugars k3 d10 k3, PS) | 46% | –
GGTAAAGGCACATTCC (sugars k3 d10 k3, PS) | 47% | –
GGTAACAATACTGTAA (sugars k3 d10 k3, PS) | 59% | –

Sequence | target mRNA inhibition (SK-MEL-28, 4 µM) | other results
GGTAAGGGCCCCGTGA (sugars k3 d10 k3, PS) | 33% | –
GGTACGGGATTTCCGG (sugars k3 d10 k3, PS) | – | target mRNA inhibition (MM.1R, 1 µM): 12%
GGTCAATTTTCACAGT (sugars k3 d10 k3, PS) | 64% | –
GGTCACAGGTAAGGGC (sugars k3 d10 k3, PS) | 25% | –
GGTGAAACTGAGAGTG (sugars k3 d10 k3, PS) | 8% | –
GGTGGCTCAGCAGCTT (sugars k3 d10 k3, PS) | 37% | –
GGTTGGCTGGTCTTTG (sugars kkddddddddddkeke, PS) | – | target mRNA inhibition (MM.1R, 0.0625 µM): 18%; target mRNA inhibition (MM.1R, 0.25 µM): 33%; target mRNA inhibition (MM.1R, 1 µM): 76% and 60%; target mRNA inhibition (MM.1R, 4 µM): 72%
GGTTGGCTGGTCTTTG (sugars kkdddddddddekeke, PS) | – | target mRNA inhibition (MM.1R, 0.0625 µM): 34%; target mRNA inhibition (MM.1R, 0.25 µM): 47%; target mRNA inhibition (MM.1R, 1 µM): 73% and 66%; target mRNA inhibition (MM.1R, 4 µM): 84%
GGTTTATTAGCTTTCT (sugars k3 d10 k3, PS) | -1% | –
GTAAACTGCCTTAGGG (sugars k3 d10 k3, PS) | 44% | –
GTAAAGGTAAAGGCAC (sugars k3 d10 k3, PS) | 42% | –
GTAAATGAGTCGGTCA (sugars k3 d10 k3, PS) | 79% | –
GTAACAATACTGTAAG (sugars k3 d10 k3, PS) | 55% | –
GTAACTCAGGCACCAC (sugars k3 d10 k3, PS) | 47% | –
GTAACTGACACGCACA (sugars k3 d10 k3, PS) | 51% | –
GTAACTTGACTTGAGA (sugars k3 d10 k3, PS) | 49% | –
GTAAGAGGGCAGTCAA (sugars k3 d10 k3, PS) | 44% | –
GTAAGATCTCCATGGT (sugars k3 d10 k3, PS) | – | target mRNA inhibition (MM.1R, 1 µM): 17%
GTAAGTGATAGGTATA (sugars k3 d10 k3, PS) | 76% and 68% | –
GTACACTTTGTACGGG (sugars k3 d10 k3, PS) | 64% | –
GTACAGGACAGGTAAA (sugars k3 d10 k3, PS) | 25% | –
GTACAGTCCACTCCAC (sugars k3 d10 k3, PS) | 10% | –
GTACATGGCAGTGGAG (sugars k3 d10 k3, PS) | 56% | –
GTAGAAGCCCACAAGA (sugars k3 d10 k3, PS) | -4% | –
